Consider two substances from patent publication US9359645B2, “Methods for detecting diabetic nephropathy comprising measuring the expression of Smad1” (HUBIT GENOMIX INC., priority 2003, dated 2016).

The test system of this series is Smad1. In words: Smad1 morpholino antisense oligonucleotide in AGEs-treated mesangial cells (Smad1 and Col4 expression). To be noted: for AGEs-mediated overproduction (overexpression) of Col4: mesangial cells treated with AGEs; for AGEs-mediated induction of Smad1: mesangial cells, 72 hr AGEs then 16 hr with oligo. Type of series: cell-based, mouse. The procedure: A glomerular mesangial cell strain was established from glomeruli isolated from normal, 4 week-old mice (C57BL/6JxSJL/J), and was identified according to the method previously described (S1). The mesangial cells were cultured in B medium (a 3:1 mixture of minimal essential medium/F12 modified with trace elements) supplemented with 1 mM glutamine, 100 units/ml penicillin, […] streptomycin and 20% fetal calf serum. The cultured cells fulfilled the criteria generally accepted for glomerular mesangial cells (S2). AGEs or BSA exposure was carried out as described previously (S3).
Mesangial cells were cultured in the presence of AGEs or BSA (as control) for 72 hours. Cells were harvested in sample buffer, resolved by SDS-polyacrylamide gel electrophoresis and transferred to nitro-cellulose membrane and subjected to Western blot using a 1:500 dilution of anti-Smad1 antibody and anti-pSmad1 antibody (Santa Cruz Biotechnology), followed by detection using an enhanced chemiluminescence detection system (Invitrogen, Carlsbad, Calif.).
Cultured cells were fixed in 4% paraformaldehyde. The following antibodies were used: anti-Smad1 antibody, 1:100 (Santa Cruz Biotechnology); anti-pSmad1 antibody, 1:100 (Calbiochem). An appropriate fluoresceine isothiocyanate-conjugated secondary antibody was used for visualization and imaging was done using a laser microscope and a fluorescent microscope (Olympus, Tokyo, Japan).
The antisense oligonucleotide used was a 25-nucleotide morpholino oligo (Genetools LLC, Philomath, Oreg.). The sequence is 5′-[…]-3′ (SEQ ID NO: 13). As a control, an oligo with the base composition 5′-CAtGCTcGTCACATTCAaAGCcGCT-3′ (SEQ ID NO: 18) was used. In vitro RNA transcription was performed as previously described (S7).

Turning to “Smad1 mismatch oligo: control oligo 5′-CAtGCTcGTCACATTCAaAGCcGCT-3′ (SEQ ID NO: 18) (CATGCTCGTCACATTCAAAGCCGCT; listed as DNA, chemistry not given here)”, the “AGEs-mediated overproduction (overexpression) of Col4” value was “no effect” and the “AGEs-mediated induction of Smad1” value was “not”.

Take “antisense oligo to Smad1: 25-nucleotide morpholino oligo, 5′-CAAGCTGGTCACATTCATAGCGGCT-3′ (SEQ ID NO: 13) (all phosphorodiamidate morpholino (PMO))”: the “AGEs-mediated overproduction (overexpression) of Col4” value is given as “remarkably attenuates” and the “AGEs-mediated induction of Smad1” value is listed as “completely abolished”.
